The text below walks through data of US7091207B2, “Method of treating myocardial infarction with PDE-5 inhibitors” (Virginia Commonwealth University, priority 2002, dated 2006).

One series deals with iNOS vs nNOS. The note with it: cited from earlier work.
For series [1], the system named is neonatal mouse cardiac myocytes. Format: cell-based. The note with it: for effect of channel blocker on the protective effect of sildenafil: 5-hydroxydecanoate 100 μM, HMR1098 30 μM. On the procedure:
Neonatal mouse myocytes in culture are incubated with 0.5–5 μM of DOX (in the presence or absence of 1 μM sildenafil) for 18 hours. The cells are then incubated with drug free growth medium for an additional 24 hours. Cytotoxicity of DOX is quantitatively assessed by measuring the percentage of cells killed and the amount of creatine kinase (CK) released into the media. In addition, a trypan blue exclusion assay and propidium iodide nuclear stain are used to quantitate cell death. Since DOX induces cardiomyopathy through the release of reactive oxygen species, lipid peroxidation in the cells is also measured as an index of oxidative damage.
Neonatal mouse cardiac myocyte cultures are used for membrane potential studies. Cells in culture are treated with 0.5–5 μM of DOX (in the presence or absence of 1 μM sildenafil) for 18 hours. The cells are then incubated with drug free growth medium for an additional 24 hours. Additional groups are included where the cells are treated with a mitoKATP channel blocker (5-hydroxydecanoate, 100 μM), surface channel blocker (HMR1098, 30 μM) or cyclosporine, a mitochondrial membrane potential (Ψm) blocker (5 μM). For assessment of apoptosis, the TUNEL assay is used, which is an accurate method for distinguishing apoptosis from necrosis by specifically detecting DNA cleavage and chromatin condensation characteristic of apoptosis. Additionally, positive TUNEL staining directly correlates with the more typical biochemical and morphological aspects of apoptosis. Since an understanding of cell morphology is critical for data interpretation, apoptotic morphology is simultaneously assessed according to accepted scientific criteria previously described (Nor-Avi, 1999). The in situ staining of DNA strand breaks detected by the TUNEL assay along with subsequent morphological observation via epifluorescent, confocal, and electron microscopy, provides significant and reliable data regarding the identification of apoptotic cells, even in tissue samples where apoptosis represents a small segment of the population (Manning 1994). In addition, several other key indicators of apoptosis including annexin-V, cytosolic cytochrome c, caspase 3, caspase 8, as well as poly (ADP-ribose) polymerase cleavage in these groups, are measured. Mitochondrial membrane potential (Ψm) using a fluorescent indicator probe, JC-1 (Molecular Probes, Eugene, Oreg.) is measured.

Series [2] deals with DOX-related cardiac complications. The following applies: clinical use; cited from earlier work.
The test system of series [3] is mouse heart, global I-R injury. Nature of the series: Isolated perfused mouse heart (Langendorff), 20 min global ischemia and 30 min reperfusion after in vivo treatment. The note with it: saline+1400W; 1400W 10 mg/kg IP 30 minutes before I-R. On the procedure:
Adult male outbred ICR mice were supplied by Harlan Inc (Indianapolis, Ind.). Viagra pills (Pfizer Inc) were ground into powder and dissolved in saline. The drug solution was filtered (0.45-μm pore size) before intraperitoneal injection. 1400W, an iNOS inhibitor, was obtained from Alexis. We used an isolated perfused mouse heart model subjected to 20 minutes of global ischemia and 30 minutes of reperfusion (Langendorff mode). Myocardial I-R injury was assessed by measuring infarct size, contractile function, and coronary flow as described previously (Xi, 1999). Twenty-eight mice were randomized into the following 4 groups: (n=6 to 9 per group): (1) saline (0.15 mL IP), (2) sildenafil (0.7 mg/kg IP, equivalent to 50 mg Viagra pill used for patients with erectile dysfunction, given 24 hours before I-R), (3) sildenafil+1400W (10 mg/kg IP, 14 given 30 minutes before I-R), and (4) saline+1400W. Measurement of NOS Isoforms Mice were treated with sildenafil (0.7 mg/kg IP), and their hearts were removed at 15, 30, and 45 minutes and 1, 2, 3, 4, and 24 hours after injection (n=3 per group). Three nontreated hearts were used as controls. Tissue samples were ground under liquid nitrogen and homogenized with TRI Reagent (Molecular Research Center) for extracting total RNA, which was reverse-transcribed into cDNA at 50° C. for 30 minutes using a OneStep reverse transcription (RT)-polymerase chain reaction (PCR) kit from Qiagen. The oligonucleotide primers were synthesized on the basis of published sequences for murine iNOS, eNOS, and GAPDH15 (Integrated DNA Technology). The RT-PCR products were electrophoresed on 1.5% Trisacetate-EDTA agarose gel. The target bands were identified on the basis of their specific size using DNA standards. iNOS and eNOS proteins were measured by Western blots as described previously. 13 In brief, triplicate heart samples were collected 24 hours after saline or sildenafil injection and homogenized in ice-cold RIPA buffer (Upstate Biotechnology). The homogenate was centrifuged at 10,000 g for 10 minutes at 4° C., and supernatant was recovered as the total cellular protein. Total protein (60 μg) from each sample was separated by SDS-PAGE on 10% acrylamide gels, transferred to a polyvinylidine difluoride membrane, and then blocked with 5% nonfat dry milk in Tris-buffered saline. The membrane was subsequently incubated with a rabbit polyclonal antibody (dilution 1:500, Santa Cruz) reacting specifically to iNOS, eNOS, or actin. The secondary antibody was a horseradish peroxidase-conjugated anti-rabbit IgG (1:1000 dilution, Amersham). The membranes were developed using enhanced chemiluminescence and exposed to x-ray film. The mRNA and protein expression were quantified by scanning each of the RT-PCR or Western blot band using a densitometer (Bioquant 98). […]

The subject of series [4] is rabbit heart, ischemia/reperfusion injury. As to the kind of experiment: In situ rabbit model of myocardial infarction (30 min coronary occlusion, 180 min reperfusion), infarct size by TTC staining. Type of series: in vivo. The note with it: control rabbits, 5-HD 5 mg/kg IV 10 min prior to ischemia.
Series [5] is described as follows: Systemic hemodynamics (blood pressure, heart rate, rate pressure product) in rabbits. Type of series: in vivo, rabbit. The following applies: 5-HD 5 mg/kg IV 10 min prior to ischemia, control rabbits.

Marks after values point to notes of the source that are not given here.

For the molecule `CC(=N)NCCCC[C@H](N)C(=O)O.Cl` [L-NIL, L-N-6-(1-iminoethyl)lysine hydrochloride], the “selectivity for iNOS vs nNOS” value in the series with iNOS vs nNOS is reported as “approximately 40 fold”.

In the case of `CNC(=S)NS(=O)(=O)c1cc(CCNC(=O)c2cc(Cl)ccc2OC)ccc1OC` [HMR1098], in series [1], the “effect of channel blocker on the protective effect of sildenafil” value was “not by HMR1098”.

As to `CSC(N)=NCCC[C@H](N)C(=O)O` [SMT, S-methyl-L-thiocitrulline], the “selectivity for iNOS vs nNOS” value with iNOS vs nNOS was “approximately 40 fold”.

In the case of `COc1cccc2c1C(=O)c1c(O)c3c(c(O)c1C2=O)C[C@@](O)(C(=O)CO)C[C@@H]3O[C@H]1C[C@H](N)[C@H](O)[C@H](C)O1` [DOX, Doxorubicin], in series [1] (0.5–5 μM DOX for 18 hours), the “apoptosis indicators (TUNEL, cytochrome c translocation, caspase-3, PARP cleavage, Ψm dissipation)” value was “TUNEL positivity” and the “necrotic cell death (CK release, uptake of trypan blue)” value is “increased necrotic cell death”.

For the molecule `C[C@@H](CN1CC(=O)NC(=O)C1)N1CC(=O)NC(=O)C1` [dexrazoxane], the “reduction of DOX-related cardiac complications” value in series [2] is 50%.

Molecule `CC(=N)NCc1cccc(CN)c1` [1400W] registered an infarct size in series [3] of 24.5±1.0%. The “selectivity for iNOS vs nNOS” value with iNOS vs nNOS was “approximately 40 fold”.

Regarding `CCCCCC(O)CCCC(=O)O` (stereo not shown) [5-HD, 5-hydroxydecanoate], the infarct size in series [4] is given as 33.5±1.9 % of risk area. Further, the HR in series [5] (30-min Ischemia) was 185 ± 8 beats/min; in series [5] (Baseline) it was 171 ± 13^d,e beats/min; in series [5] (Preischemia), 178 ± 13 beats/min; in series [5] (Reperfusion (60 min)), 162 ± 8 beats/min; in series [5] (Reperfusion (120 min)) it was 160 ± 8 beats/min; in series [5] (Reperfusion (180 min)), 160 ± 7 beats/min. The MAP in series [5] (30-min Ischemia) is reported as 95 ± 5^a mmHg; in series [5] (Baseline), 120 ± 4 mmHg; in series [5] (Preischemia), 110 ± 6 mmHg; in series [5] (Reperfusion (60 min)), 97 ± 5^a mmHg; in series [5] (Reperfusion (120 min)), 91 ± 5^a mmHg; in series [5] (Reperfusion (180 min)), 91 ± 7^a mmHg. Besides, the “RPP (systolic arterial pressure × HR)” value in series [5] (30-min Ischemia) is reported as 19215 ± 999; in series [5] (Baseline), 22477 ± 1849; in series [5] (Preischemia) it was 20977 ± 1373; in series [5] (Reperfusion (60 min)), 17050 ± 1132; in series [5] (Reperfusion (120 min)) it was 15770 ± 984^a; in series [5] (Reperfusion (180 min)), 16300 ± 1503^a. For the same molecule, the “effect of channel blocker on the protective effect of sildenafil” value in series [1] was “abolished”.
